Twelve molecules from US12065436B2, “Cardiac sarcomere inhibitors” (Cytokinetics, Inc., priority 2018, dated 2024) can be followed below.

This test addresses bovine cardiac myofibrils (full-length cardiac myosin ATPase in the native sarcomere) (Bos taurus (Bovine), UniProt Q9BE39). The experiment in a line: Skinned bovine cardiac myofibril ATPase assay (PK/LDH-coupled). Type of test: biochemical. The note with it: Ca2+ activating to 75% of maximal rate; for CDMF75 IC15: concentration giving 15% inhibition; for IC50: read-out: CDMF75 IC50. Summed up: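 Triton-skinned bovine left-ventricle myofibrils (1 mg/mL) in PM 12 buffer (12 mM PIPES, 2 mM MgCl2, pH 6.8) with 50 μM ATP, 0.6 mM EGTA and CaCl2 set for 50% or 75% activation. Steady-state ATPase inhibition followed by PK/LDH-coupled NADH oxidation at 340 nm.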

Sequence of bovine cardiac myofibrils (full-length cardiac myosin ATPase in the native sarcomere) (Q9BE39 whole entry): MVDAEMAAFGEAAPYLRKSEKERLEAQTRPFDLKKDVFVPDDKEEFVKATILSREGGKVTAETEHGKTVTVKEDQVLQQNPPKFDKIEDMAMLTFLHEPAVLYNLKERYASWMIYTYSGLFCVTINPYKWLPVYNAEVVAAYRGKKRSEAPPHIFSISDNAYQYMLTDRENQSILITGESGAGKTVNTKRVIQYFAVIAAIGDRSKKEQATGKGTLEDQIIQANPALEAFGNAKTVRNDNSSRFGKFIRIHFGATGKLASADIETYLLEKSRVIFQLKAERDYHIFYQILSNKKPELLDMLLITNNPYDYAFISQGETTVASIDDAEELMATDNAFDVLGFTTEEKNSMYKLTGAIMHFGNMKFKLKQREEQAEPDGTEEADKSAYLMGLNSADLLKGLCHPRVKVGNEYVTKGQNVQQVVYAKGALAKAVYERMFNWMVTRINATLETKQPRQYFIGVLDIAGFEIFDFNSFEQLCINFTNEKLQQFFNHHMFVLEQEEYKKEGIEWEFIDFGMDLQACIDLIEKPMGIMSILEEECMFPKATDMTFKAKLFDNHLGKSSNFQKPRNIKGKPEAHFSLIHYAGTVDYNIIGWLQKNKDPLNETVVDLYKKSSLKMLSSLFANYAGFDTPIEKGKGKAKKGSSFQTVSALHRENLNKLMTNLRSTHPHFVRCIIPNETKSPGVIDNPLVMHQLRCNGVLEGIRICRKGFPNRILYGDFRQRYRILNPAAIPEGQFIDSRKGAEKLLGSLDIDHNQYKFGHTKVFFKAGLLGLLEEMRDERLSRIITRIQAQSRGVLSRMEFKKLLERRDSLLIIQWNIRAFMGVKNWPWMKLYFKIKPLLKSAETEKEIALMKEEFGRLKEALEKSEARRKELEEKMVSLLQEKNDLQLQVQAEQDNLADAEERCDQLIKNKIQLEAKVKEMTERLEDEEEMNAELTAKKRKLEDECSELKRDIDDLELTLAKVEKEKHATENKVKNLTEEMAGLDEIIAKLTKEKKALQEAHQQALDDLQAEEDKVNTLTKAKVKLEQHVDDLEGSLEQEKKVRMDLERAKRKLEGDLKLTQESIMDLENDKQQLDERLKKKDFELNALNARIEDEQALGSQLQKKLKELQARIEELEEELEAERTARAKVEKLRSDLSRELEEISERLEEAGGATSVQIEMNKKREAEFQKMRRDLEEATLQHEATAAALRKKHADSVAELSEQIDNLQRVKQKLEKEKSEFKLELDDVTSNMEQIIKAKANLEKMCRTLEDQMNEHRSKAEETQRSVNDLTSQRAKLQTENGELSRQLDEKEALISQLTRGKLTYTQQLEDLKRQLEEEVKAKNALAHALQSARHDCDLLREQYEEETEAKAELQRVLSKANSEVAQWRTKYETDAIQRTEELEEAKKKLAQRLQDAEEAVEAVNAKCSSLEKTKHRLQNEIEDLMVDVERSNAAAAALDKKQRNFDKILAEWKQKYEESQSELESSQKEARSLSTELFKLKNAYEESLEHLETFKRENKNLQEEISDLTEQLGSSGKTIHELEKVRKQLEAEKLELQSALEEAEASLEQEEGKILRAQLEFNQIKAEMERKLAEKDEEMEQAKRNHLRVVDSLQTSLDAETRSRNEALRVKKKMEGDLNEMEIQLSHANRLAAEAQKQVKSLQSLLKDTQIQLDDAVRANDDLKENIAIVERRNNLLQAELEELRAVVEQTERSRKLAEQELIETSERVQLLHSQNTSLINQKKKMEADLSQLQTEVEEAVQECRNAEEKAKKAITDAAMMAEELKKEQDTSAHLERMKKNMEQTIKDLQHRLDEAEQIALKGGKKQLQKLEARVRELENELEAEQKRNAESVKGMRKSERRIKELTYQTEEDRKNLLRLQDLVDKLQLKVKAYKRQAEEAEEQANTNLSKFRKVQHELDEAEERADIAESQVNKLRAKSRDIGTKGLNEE
Sequence of bovine cardiac myofibrils (full-length cardiac myosin ATPase in the native sarcomere) (P85100 whole entry partner): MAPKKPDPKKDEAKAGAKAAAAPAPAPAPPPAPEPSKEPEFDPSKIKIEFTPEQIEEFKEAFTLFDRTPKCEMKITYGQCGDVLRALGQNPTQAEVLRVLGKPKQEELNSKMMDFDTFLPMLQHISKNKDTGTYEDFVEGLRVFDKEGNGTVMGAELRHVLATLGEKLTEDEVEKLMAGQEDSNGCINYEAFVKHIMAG
Sequence of bovine cardiac myofibrils (full-length cardiac myosin ATPase in the native sarcomere) (Q3SZE5 whole entry partner): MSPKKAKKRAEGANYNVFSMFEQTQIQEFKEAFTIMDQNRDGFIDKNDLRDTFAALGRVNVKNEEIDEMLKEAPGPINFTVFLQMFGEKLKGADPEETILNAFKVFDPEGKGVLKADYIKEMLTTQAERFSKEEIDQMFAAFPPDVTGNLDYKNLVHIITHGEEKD

Usually IC50 stands for the concentration that inhibits the measured activity by half. For `Cn1cc(C(=O)N[C@@H]2CCc3cc(-c4noc(C5CCC5)n4)ccc32)ccc1=O` [Compound 645, (R)-N-(5-(5-cyclobutyl-1,2,4-oxadiazol-3-yl)-2,3-dihydro-1H-inden-1-yl)-1-methyl-6-oxo-1,6-dihydropyridine-3-carboxamide], the “CDMF75 IC15” value stood at 1600 nM and the IC50 came to 7000 nM.

For the molecule `COCc1nc(-c2ccc3c(c2)CC[C@H]3NC(=O)c2ocnc2C)no1` [Compound 177, (R)-N-(5-(5-(methoxymethyl)-1,2,4-oxadiazol-3-yl)-2,3-dihydro-1H-inden-1-yl)-4-methyloxazole-5-carboxamide], the “CDMF75 IC15” value turned out to be 500 nM and the IC50 stood at 1800 nM.

Take `Cc1nc(-c2ccc3c(c2)CC[C@H]3NC(=O)OC2CCC2)no1` [Compound 319, cyclobutyl (R)-(5-(5-methyl-1,2,4-oxadiazol-3-yl)-2,3-dihydro-1H-inden-1-yl)carbamate]: the “CDMF75 IC15” value was 1300 nM and the IC50 amounted to 5300 nM.

Regarding `CCc1nc(-c2ccc3c(c2)OCCC3NC(=O)c2ccnn2C)no1` (stereo not drawn) [Compound 536, N-(7-(5-ethyl-1,2,4-oxadiazol-3-yl)chroman-4-yl)-1-methyl-1H-pyrazole-5-carboxamide], the “CDMF75 IC15” value stood at 1100 nM and the IC50 was found to be 3500 nM.

Consider `CC(=O)O[C@@H](C)c1nc(-c2ccc3c(c2)CC[C@H]3NC(=O)c2cnn(C)c2)no1` [Compound 543, 1-(3-{(1R)-1-[(1-methylpyrazol-4-yl)carbonylamino]indan-5-yl}(1,2,4-oxadiazol-5-yl))(1S)ethyl acetate], for which the “CDMF75 IC15” value was found to be 4600 nM and the IC50 was 17300 nM.

On to `CCc1cc(-c2ccc3c(c2)CC[C@H]3NC(=O)c2ocnc2C)no1` [Compound 417, (R)-N-(5-(5-ethylisoxazol-3-yl)-2,3-dihydro-1H-inden-1-yl)-4-methyloxazole-5-carboxamide], for which the “CDMF75 IC15” value is 200 nM and the IC50 stood at 600 nM.

Turning to `COCc1nc(-c2ccc3c(c2)CC[C@H]3NC(=O)c2cc(C(F)F)ccn2)no1` [Compound 733, (R)-4-(difluoromethyl)-N-(5-(5-(methoxymethyl)-1,2,4-oxadiazol-3-yl)-2,3-dihydro-1H-inden-1-yl)picolinamide], the “CDMF75 IC15” value was 1500 nM and the IC50 came to 8900 nM.

On to `CCc1nc(-c2ccc3c(c2)CC[C@H]3NC(=O)c2cocn2)no1` [Compound 587, (R)-N-(5-(5-ethyl-1,2,4-oxadiazol-3-yl)-2,3-dihydro-1H-inden-1-yl)oxazole-4-carboxamide], for which the “CDMF75 IC15” value stood at 2500 nM and the IC50 was 12900 nM.

Take `CCc1cc(-c2ccc3c(c2)OC[C@H]3NC(=O)c2cnc(C)o2)no1` [Compound 422, (S)-N-(6-(5-ethylisoxazol-3-yl)-2,3-dihydrobenzofuran-3-yl)-2-methyloxazole-5-carboxamide]: the “CDMF75 IC15” value is 400 nM and the IC50 came to 1500 nM.

`CCc1nc(-c2ccc3c(c2)CC[C@H]3NC(=O)c2cc(C)ncn2)no1` [Compound 631, (R)-N-(5-(5-ethyl-1,2,4-oxadiazol-3-yl)-2,3-dihydro-1H-inden-1-yl)-6-methylpyrimidine-4-carboxamide]: the “CDMF75 IC15” value worked out at 500 nM and the IC50 stood at 1800 nM.

Consider `Cn1cc(C(=O)N[C@@H]2CCc3cc(-c4nc(C5CC5)no4)ccc32)cn1` [Compound 258, (R)-N-(5-(3-cyclopropyl-1,2,4-oxadiazol-5-yl)-2,3-dihydro-1H-inden-1-yl)-1-methyl-1H-pyrazole-4-carboxamide], for which the “CDMF75 IC15” value was 1500 nM and the IC50 stood at 5700 nM.

Take `CCc1nc(-c2ccc3c(c2)CC[C@H]3NC(=O)c2cccc(CO)c2)no1` [Compound 653, (R)-N-(5-(5-ethyl-1,2,4-oxadiazol-3-yl)-2,3-dihydro-1H-inden-1-yl)-3-(hydroxymethyl)benzamide]: the “CDMF75 IC15” value is 200 nM and the IC50 was determined as 700 nM.
